# Reference: publication PMC3913711, “A Novel Angiotensin I-Converting Enzyme Mutation (S333W) Impairs N-Domain Enzymatic Cleavage of the Anti-Fibrotic Peptide, AcSDKP” (PLoS ONE, 2014)
# Residues, ends and D or L forms follow the SMILES beside them. *: point of attachment. Bz = O=C(c1ccccc1)*
# What was measured:
# [1] = target: T1, Angiotensin I-converting enzyme (ACE, CD143) (Homo sapiens, UniProt P12821, S362W); test: fluorimetric hydrolysis assay (His-Leu product), […] substrate; assay type: cell-based
# T1 construct: full-length somatic ACE, CHO cell lysate
# T1 sequence (P12821 30-1306 S362W): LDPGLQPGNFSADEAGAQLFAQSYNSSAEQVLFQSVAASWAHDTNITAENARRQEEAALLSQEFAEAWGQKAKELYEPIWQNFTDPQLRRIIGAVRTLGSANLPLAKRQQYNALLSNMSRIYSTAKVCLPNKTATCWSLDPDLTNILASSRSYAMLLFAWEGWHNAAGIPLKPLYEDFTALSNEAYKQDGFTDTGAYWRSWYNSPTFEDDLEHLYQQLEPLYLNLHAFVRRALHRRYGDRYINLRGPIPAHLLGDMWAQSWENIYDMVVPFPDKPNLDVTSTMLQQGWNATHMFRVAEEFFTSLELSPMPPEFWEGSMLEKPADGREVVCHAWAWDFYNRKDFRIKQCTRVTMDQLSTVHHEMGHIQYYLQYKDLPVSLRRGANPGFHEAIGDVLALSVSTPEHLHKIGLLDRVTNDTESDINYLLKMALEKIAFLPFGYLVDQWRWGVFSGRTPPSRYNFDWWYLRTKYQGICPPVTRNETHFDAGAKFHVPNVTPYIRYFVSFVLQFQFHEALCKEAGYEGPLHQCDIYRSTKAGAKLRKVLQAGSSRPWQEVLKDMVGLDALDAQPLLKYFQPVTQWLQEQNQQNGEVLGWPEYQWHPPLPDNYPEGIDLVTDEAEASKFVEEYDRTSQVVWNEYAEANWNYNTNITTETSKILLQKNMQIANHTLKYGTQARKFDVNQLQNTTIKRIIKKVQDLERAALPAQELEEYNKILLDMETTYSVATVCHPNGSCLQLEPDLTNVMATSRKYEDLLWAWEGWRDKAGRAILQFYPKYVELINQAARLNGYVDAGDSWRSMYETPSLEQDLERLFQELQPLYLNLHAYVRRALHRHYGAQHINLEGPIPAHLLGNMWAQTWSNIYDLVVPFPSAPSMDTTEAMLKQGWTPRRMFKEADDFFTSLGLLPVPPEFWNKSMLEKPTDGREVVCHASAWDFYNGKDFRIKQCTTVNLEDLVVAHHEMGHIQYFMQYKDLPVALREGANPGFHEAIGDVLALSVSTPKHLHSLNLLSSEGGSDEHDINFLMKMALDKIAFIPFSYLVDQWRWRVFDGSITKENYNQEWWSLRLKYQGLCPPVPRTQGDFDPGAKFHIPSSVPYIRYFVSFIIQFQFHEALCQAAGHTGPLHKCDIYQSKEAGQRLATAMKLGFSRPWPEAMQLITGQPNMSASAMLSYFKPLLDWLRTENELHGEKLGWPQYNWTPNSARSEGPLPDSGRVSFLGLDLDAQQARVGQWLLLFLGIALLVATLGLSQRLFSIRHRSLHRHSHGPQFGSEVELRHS
# [2] = target: T2, Angiotensin I-converting enzyme (ACE, CD143) (Homo sapiens, UniProt P12821); test: as above; assay type: cell-based
# T2 construct: full-length somatic ACE, CHO cell lysate
# T2 sequence (P12821 30-1306): as the sequence (P12821 30-1306 S362W) above, with W333S counted along it
smiles,measurement,setting,value
CC(C)C[C@H](NC(=O)[C@H](Cc1cnc[nH]1)NC(=O)CNC(=O)c1ccccc1)C(=O)O [Hip-His-Leu] (Bz-Gly-His-Leu-OH),"fluorimetric hydrolysis assay (His-Leu product), 5 mM substrate",[1],stably expressing WT and mutant ACE was determined with substrates Hip-His-Leu and Z-Phe-His –Leu
same,"fluorimetric hydrolysis assay (His-Leu product), 5 mM substrate",[2],stably expressing WT and mutant ACE was determined with substrates Hip-His-Leu and Z-Phe-His –Leu
